Laboratory results as given in patent US4950667A, “Pyridinyl acetamide compounds useful in treating ulcers” (Hamari Chemicals, Ltd., priority 1988, dated 1990).
Where a name gives a salt, the structure may show the parent alone.

Assays:
[1] = test system: water-immersion stress-induced gastric ulcer (Slc:SD rats); assay: Water-immersion stress ulceration method; assay type: in vivo, rat (male Slc:SD); details: for Inhibition rate: vs non-treated control
Experimental: The stomachs were incised along the greater curvature, and the ulcers thus induced were measured for length under the stereoscopic microscope (magnification,×10), whereby the total sum of the lengths was taken as an ulcer index (U.I., in mm). The test substance was given orally to rats in the form of a 4% gum arabic suspension 30 minutes before stress loading.

[2] = Acute toxicity; details: mouse, in vivo; male ddY mice, single oral dose, observed for 7 days
Source text: A group of five male ddY mice (4-weeks aged) was used for testing.
The compound of Example 1 was suspended in 4% gum arabic solution to prepare a test pharmaceutical, which was given orally to each test animals once.

[3] = 30 mg/kg, oral, 30 minutes before stress loading, 7 hours stress
[4] = 10 mg/kg, oral, 30 minutes before stress loading, 7 hours stress

In the case of `CN/C(=N/CCSCc1nc[nH]c1C)NC#N` [Cimetidine, reference compound], the Inhibition rate ([1]; 30 mg/kg, control reference (Cimetidine), no significance mark) is reported as 61.4% and the “ulcer index (U.I.), Mean ± S.E.” value [1, 3] is reported as 5.2 ± 3.40 mm.
With `O=C(CNc1ccncc1)Nc1ccccc1Nc1ccccc1` [Example 1, N-[2-(phenylamino),phenyl]-2-[(4-pyridinyl)-amino]actetamide hydrochloride] the “ulcer index (U.I.), Mean ± S.E.” value [1, 4] was 13.0 ± 4.47 mm, the Inhibition rate [1, 4] was 2.8% and the “ulcer index (U.I.), Mean ± S.E.” value [1, 3] was 3.8 ± 1.66 mm. For the same molecule, the Inhibition rate ([1]; 30 mg/kg, oral, 30 minutes before stress loading, 7 hours stress, *p < 0.05) was 71.3%, the “ulcer index (U.I.), Mean ± S.E.” value ([1]; 100 mg/kg, oral, 30 minutes before stress loading, 7 hours stress) was 1.5 ± 1.31 mm and the Inhibition rate ([1]; 100 mg/kg, oral, 30 minutes before stress loading, 7 hours stress, **p < 0.01) was 88.8%. It also gave an LD50 at 168 h [2] of no less than 2000 mg/kg.
